Test results taken from ChEMBL document CHEMBL1201862, “PubChem BioAssay data set” (2004).
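Protocol summary: plate cells (96-well), add compound at 5 concentrations, incubate 48 h, interpolate endpoints linearly. GI50 = concentration required for 50% inhibition of growth.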 Activity calls are given as the source filed them. Rule as the data show it: active = GI50 up to about 1.1 µM and inactive = higher.

Legend:
Test in all cases: NCI-60 cell line screen, 48 h
[1] = system: NCI-H226
[2] = system: NCI-H522
[3] = system: M19-MEL
[4] = system: SF-295
[5] = system: K562
[6] = system: SN12C
[7] = system: A498
[8] = system: XF498
[9] = system: SK-MEL-2
[10] = system: DLD-1
[11] = system: 786-0
[12] = system: SF-539
[13] = system: RXF 393
[14] = system: HOP-62
[15] = system: RXF 631
[16] = system: SR
[17] = system: HCC 2998
[18] = system: CAKI-1
[19] = system: CCRF-CEM
[20] = system: ACHN
[21] = system: LXFL 529
[22] = system: MOLT-4
[23] = system: NCI-H460
[24] = system: COLO 205
[25] = system: KM12
[26] = system: OVCAR-8
[27] = system: OVCAR-3
[28] = system: DMS-114
[29] = system: HCT-15
[30] = system: SNB-75
[31] = system: HOP-92
[32] = system: SW-620
[33] = system: HOP-18
[34] = system: HT-29
[35] = system: NCI-H23
[36] = system: OVCAR-5
[37] = system: UO-31
[38] = system: UACC-257
[39] = system: M14
[40] = system: Malme-3M
[41] = system: SF-268
[42] = system: OVCAR-4
[43] = system: SK-MEL-5
[44] = system: HCT-116
[45] = system: A549
[46] = system: IGROV-1
[47] = system: RPMI-8226
[48] = system: U-251
[49] = system: UACC-62
[50] = system: SK-MEL-28
[51] = system: SK-OV-3
[52] = system: EKVX
[53] = system: TK-10
[54] = system: SNB-78
[55] = system: DMS-273
[56] = system: LOX IMVI
[57] = system: KM-20L2
[58] = system: SNB-19
[59] = system: HL-60

With `c1ccc2c(c1)[nH]c1c2nc2ccccn21` as the molecule, how does the GI50 [1] read?
Its GI50 is > 100 µM (inactive).

What about the GI50 [2] of the same molecule?
Its GI50 is > 100 µM (inactive).

What about the GI50 [3] of the same molecule?
The GI50 was > 100 µM (inactive).

What about the GI50 [4] of the same molecule?
The GI50 was > 100 µM (inactive).

What about the GI50 [5] of the same molecule?
Its GI50 is 74.3 µM (inactive).

And the GI50 [6]?
The GI50 was > 100 µM (inactive).

What about the GI50 [7] of the same molecule?
The GI50 was 85.5 µM (inactive).

What about the GI50 [8] of the same molecule?
Its GI50 is > 100 µM (inactive).

What about the GI50 [9] of the same molecule?
Its GI50 is > 100 µM (inactive).

What about the GI50 [10] of the same molecule?
The GI50 was 66.1 µM (inactive).

And the GI50 [11]?
The GI50 was 81.3 µM (inactive).

And the GI50 [12]?
The GI50 was > 100 µM (inactive).

And the GI50 [13]?
The GI50 was > 100 µM (inactive).

What about the GI50 [14] of the same molecule?
Its GI50 is > 100 µM (inactive).

What about the GI50 [15] of the same molecule?
Its GI50 is > 100 µM (inactive).

What about the GI50 [16] of the same molecule?
Its GI50 is > 100 µM (inactive).

And the GI50 [17]?
The GI50 was > 100 µM (inactive).

And the GI50 [18]?
The GI50 was 67.9 µM (inactive).

How did the GI50 [19] turn out when `COC(=O)CCC(=O)N1C/C(=C\c2ccccc2)C(=O)/C(=C/c2ccccc2)C1` was run?
The GI50 was 2.74 µM (inactive).

What about the GI50 [1] of the same molecule?
Its GI50 is 3.41 µM (inactive).

And the GI50 [20]?
Its GI50 is 1.97 µM (inactive).

And the GI50 [21]?
The GI50 was 2.09 µM (inactive).

And the GI50 [22]?
The GI50 was 1.83 µM (inactive).

And the GI50 [23]?
The GI50 was 2.43 µM (inactive).

What about the GI50 [24] of the same molecule?
Its GI50 is 2.06 µM (inactive).

And the GI50 [25]?
The GI50 was 0.807 µM (active).

And the GI50 [26]?
The GI50 was 3.1 µM (inactive).

What about the GI50 [27] of the same molecule?
Its GI50 is 2.31 µM (inactive).

And the GI50 [28]?
Its GI50 is 1.73 µM (inactive).

And the GI50 [29]?
The GI50 was 0.432 µM.

What about the GI50 [3] of the same molecule?
Its GI50 is 2.39 µM (inactive).

And the GI50 [30]?
The GI50 was 2.29 µM (inactive).

And the GI50 [31]?
Its GI50 is 6.03 µM (inactive).

And the GI50 [32]?
The GI50 was 0.191 µM (active).

And the GI50 [4]?
Its GI50 is 2.31 µM (inactive).

What about the GI50 [33] of the same molecule?
Its GI50 is 2.34 µM (inactive).

And the GI50 [5]?
Its GI50 is 1.43 µM (inactive).

And the GI50 [34]?
Its GI50 is 1.72 µM (inactive).

And the GI50 [6]?
Its GI50 is 1.86 µM (inactive).

What about the GI50 [35] of the same molecule?
Its GI50 is 2.14 µM (inactive).

What about the GI50 [7] of the same molecule?
The GI50 was 2.24 µM (inactive).

What about the GI50 [36] of the same molecule?
Its GI50 is 2.7 µM (inactive).

And the GI50 [37]?
Its GI50 is 2.04 µM (inactive).

And the GI50 [38]?
Its GI50 is 1.89 µM (inactive).

What about the GI50 [8] of the same molecule?
Its GI50 is 5.87 µM (inactive).

What about the GI50 [39] of the same molecule?
The GI50 was 1.98 µM (inactive).

And the GI50 [40]?
Its GI50 is 2.34 µM (inactive).

And the GI50 [10]?
The GI50 was 2.04 µM (inactive).

And the GI50 [11]?
The GI50 was 2.03 µM (inactive).

What about the GI50 [41] of the same molecule?
Its GI50 is 2.28 µM (inactive).

What about the GI50 [42] of the same molecule?
The GI50 was 2.03 µM (inactive).

What about the GI50 [43] of the same molecule?
Its GI50 is 2.2 µM (inactive).

What about the GI50 [44] of the same molecule?
The GI50 was 0.41 µM (active).

And the GI50 [12]?
Its GI50 is 2.94 µM (inactive).

What about the GI50 [45] of the same molecule?
Its GI50 is 3.64 µM (inactive).

And the GI50 [46]?
Its GI50 is 1.79 µM (inactive).

And the GI50 [13]?
Its GI50 is 2.06 µM (inactive).

And the GI50 [47]?
Its GI50 is 0.416 µM (active).

And the GI50 [48]?
Its GI50 is 1.24 µM (inactive).

And the GI50 [14]?
The GI50 was 12.6 µM (inactive).

And the GI50 [49]?
The GI50 was 2.11 µM (inactive).

And the GI50 [16]?
Its GI50 is 1.18 µM (inactive).

And the GI50 [50]?
Its GI50 is 2.31 µM (inactive).

What about the GI50 [51] of the same molecule?
The GI50 was 4.16 µM (inactive).

And the GI50 [52]?
Its GI50 is 3.94 µM (inactive).

And the GI50 [17]?
The GI50 was 1.67 µM (inactive).

What about the GI50 [18] of the same molecule?
The GI50 was 1.75 µM (inactive).

And the GI50 [53]?
Its GI50 is 4.41 µM (inactive).

What about the GI50 [54] of the same molecule?
Its GI50 is 2.77 µM (inactive).

What about the GI50 [55] of the same molecule?
Its GI50 is 0.708 µM (active).

What about the GI50 [56] of the same molecule?
Its GI50 is 0.447 µM (active).

What about the GI50 [57] of the same molecule?
The GI50 was 2.24 µM (inactive).

What about the GI50 [58] of the same molecule?
Its GI50 is 3.82 µM (inactive).

For `COc1ccc(-c2cc(O)c3cc4c(cc3n2)OCO4)cc1OC`, which GI50 [19] is on record?
The GI50 was > 100 µM (inactive).

And the GI50 [1]?
The GI50 was > 100 µM (inactive).

And the GI50 [20]?
Its GI50 is > 100 µM (inactive).

And the GI50 [21]?
Its GI50 is > 100 µM (inactive).

And the GI50 [22]?
Its GI50 is > 100 µM (inactive).

And the GI50 [2]?
Its GI50 is > 100 µM (inactive).

And the GI50 [23]?
Its GI50 is > 100 µM (inactive).

And the GI50 [24]?
The GI50 was > 100 µM (inactive).

What about the GI50 [25] of the same molecule?
The GI50 was > 100 µM (inactive).

What about the GI50 [26] of the same molecule?
Its GI50 is > 100 µM (inactive).

And the GI50 [27]?
The GI50 was > 100 µM (inactive).

And the GI50 [28]?
The GI50 was > 100 µM (inactive).

And the GI50 [29]?
Its GI50 is > 100 µM.

What about the GI50 [3] of the same molecule?
The GI50 was > 100 µM (inactive).

And the GI50 [30]?
The GI50 was > 100 µM (inactive).

And the GI50 [31]?
Its GI50 is > 100 µM (inactive).

And the GI50 [32]?
The GI50 was > 100 µM (inactive).

And the GI50 [4]?
Its GI50 is > 100 µM (inactive).

What about the GI50 [59] of the same molecule?
The GI50 was > 100 µM (inactive).

And the GI50 [33]?
Its GI50 is > 100 µM (inactive).

And the GI50 [5]?
The GI50 was > 100 µM (inactive).

What about the GI50 [34] of the same molecule?
Its GI50 is > 100 µM (inactive).

What about the GI50 [6] of the same molecule?
Its GI50 is > 100 µM (inactive).

What about the GI50 [35] of the same molecule?
The GI50 was > 100 µM (inactive).

What about the GI50 [37] of the same molecule?
Its GI50 is > 100 µM (inactive).

What about the GI50 [8] of the same molecule?
Its GI50 is > 100 µM (inactive).

What about the GI50 [39] of the same molecule?
The GI50 was > 100 µM (inactive).

What about the GI50 [9] of the same molecule?
The GI50 was > 100 µM (inactive).

And the GI50 [40]?
Its GI50 is > 100 µM (inactive).

And the GI50 [10]?
The GI50 was > 100 µM (inactive).

And the GI50 [11]?
Its GI50 is > 100 µM (inactive).

And the GI50 [41]?
The GI50 was > 100 µM (inactive).

What about the GI50 [42] of the same molecule?
Its GI50 is > 100 µM (inactive).

And the GI50 [43]?
Its GI50 is 65.6 µM (inactive).

What about the GI50 [44] of the same molecule?
Its GI50 is > 100 µM (inactive).

And the GI50 [12]?
The GI50 was > 100 µM (inactive).

And the GI50 [45]?
Its GI50 is > 100 µM (inactive).

And the GI50 [46]?
Its GI50 is > 100 µM (inactive).

What about the GI50 [13] of the same molecule?
Its GI50 is > 100 µM (inactive).

And the GI50 [47]?
The GI50 was > 100 µM (inactive).

And the GI50 [48]?
The GI50 was > 100 µM (inactive).

And the GI50 [14]?
The GI50 was > 100 µM (inactive).

And the GI50 [49]?
Its GI50 is > 100 µM (inactive).

And the GI50 [16]?
The GI50 was 45 µM (inactive).

And the GI50 [50]?
Its GI50 is > 100 µM (inactive).

And the GI50 [51]?
Its GI50 is > 100 µM (inactive).

And the GI50 [52]?
Its GI50 is > 100 µM (inactive).

What about the GI50 [17] of the same molecule?
Its GI50 is > 100 µM (inactive).

And the GI50 [18]?
The GI50 was > 100 µM (inactive).

What about the GI50 [53] of the same molecule?
The GI50 was > 100 µM (inactive).

What about the GI50 [54] of the same molecule?
Its GI50 is > 100 µM (inactive).

And the GI50 [55]?
Its GI50 is > 100 µM (inactive).

What about the GI50 [56] of the same molecule?
The GI50 was > 100 µM (inactive).

What about the GI50 [57] of the same molecule?
The GI50 was > 100 µM (inactive).

And the GI50 [58]?
The GI50 was > 100 µM (inactive).
